Laboratory results from patent US20160038474A1, “COMPOSITIONS AND METHODS FOR THE MODULATION OF HEMOGLOBIN (S)” (GLOBAL BLOOD THERAPEUTICS, INC., priority 2013, published 2016).
Where two headings read alike, the source gives them in different places.

What was measured:
[1] = target: T1, whole blood from homozygous sickle cell patients, Hb(S) (Homo sapiens, UniProt P68871+P69905, E7V); assay: Reverse Hemox assay (oxygen equilibrium curves), whole blood; format: cell-based; settings: for Whole Blood OEC (delta p50%): [Hb] 1 mM; for p50: whole blood from sickle cell disease patients, control blood p50 30 mm Hg; for Reverse Hemox delta p50% (class) / Reverse Hemox delta p50%: 1 mM compound, whole blood, hematocrit 20%; for Reverse Hemox delta p50%: 1 hour 37° C.
T1 construct: Oxygen Equilibrium Curves (OEC) of whole blood before and after treatment; from tissue; host or cells: whole blood (or washed red blood cells) of homozygous sickle cell patients
Protocol: (§1) Oxygen Equilibrium Curves (OEC) of whole blood before and after treatment with different concentrations of compounds 12, 22 and 23 were performed as follows using a HEMOX analyzer (TCS Scientific, New Hope, Pa.). Blood samples from homozygous sickle cell patients were obtained though the Hemoglobinopathy Center at Children's Hospital Oakland Research Institute (CHORI) with Institutional Review Board approval. The hematocrit was adjusted to 20% using autologous plasma and the blood samples were incubated for 1 hour at 37° C. in absence or presence of compounds. 100 μl of these samples were added to 5 mL of Hemox butter (30 mM TES, 130 mM NaCl, 5 mM KCl, pH=7.4) at 37° C. and then transferred to the Hemox sample chamber. The samples were saturated with oxygen by flushing with compressed air for 10 minutes. The samples were then flushed with pure nitrogen and the respective absorbances of oxy- and deoxy-Hb are recorded as a function of the solution pO2. The oxygen equilibrium data were then fitted to the Hill Model to obtain values for p50. The deoxygenation curves for both whole blood alone (control) and whole blood in the presence of the compound were collected with the TCS software.
Results: Table 3 below lists the delta p50% values where “+” indicates a delta p50% of between 0 and 29, “++” indicates a delta p50% of between 30 and 50, and “+++” indicates a delta p50% of 50 or greater.
(§2) Reverse hemox assay was performed essentially as described in Example 2, above, using either washed red blood cells or whole blood.

washed red blood cells = assay: Reverse Hemox assay (OEC), washed red blood cells; format: cell-based, human
Protocol: as §1, §2
Results: Table 4, below, indicates the percent change in p50 (delta p50%) for each compound tested. In the washed red blood cells (RBCs), 5-HMF, compound 5, and compound 12 (1 mM compound) gave p50 of 20, 9 and 7 mm Hg, respectively, compared to the control red blood cells (delta p50=30 mm Hg). To determine the effects of plasma proteins on compound activity. OECs were measured in whole blood from sickle cell disease patients. 5-HMF, compound 5, compound 9, and compound 12 gave p50 of 27, 18, 11 and 6 mm Hg, respectively, compared to the control blood p50 of 30 mm Hg.

HbS [2] = target: T2, HbS (Homo sapiens, UniProt P68871+P69905, E7V); assay: 96-well oxygen dissociation assay (ODA); format: biochemical; settings: for potency at increasing the oxygen affinity of HbS compared with 5-HMF: 96-well ODA; for Hb in ODA (Δoxy state): [Hb] 3 μM, [cmp] 3 μM
Source text: Results: Table 4 below lists the change in oxygen affinity (Δoxy state). After two hours of passive deoxygenation, compound 12, at an equimolar concentration to Hb, increased the Hb oxygen affinity by 6-fold.

[3] = system: sickle cell disease patient whole blood (ssRBCs); assay: Viscosity assay, hypoxic sickle cell blood; format: cell-based, human; settings: [Hb] 1.5 mM, two hours of hypoxia
Protocol: Sickle cell disease patients develop anemia as a means for the circulatory system to compensate for increase in blood viscosity caused by the non-deformable sickle cell red blood cells (ssRBCs). The effects of 5-HMF, compound 5, compound 9, or compound 12 were tested on sickle cell disease patient blood rheology to determine if these compounds decrease the viscosity of ssRBCs that have undergone hypoxia. Using blood from patients with sickle cell disease, whole blood (30% hematocrit, ˜1.5 mM Hb) was incubated with 5-HMF, compound 5, compound 9, or compound 12 during exposure to two hours of hypoxia (2.4% 02). A cone-plate viscometer was used to measure the viscosity at shear rates ranging from 60 s^−1 to 415 s^−1.

HbS [4] = target: T2, HbS; assay: 96-well oxygen dissociation assay (ODA); format: biochemical; settings: [Hb] 3 μM; [cmp] 1 μM
[5] = Rat pharmacokinetics and blood/plasma partitioning (Example 1); format: in vivo, Rats (Sprague-Dawley); settings: for level of compound in blood versus plasma, overall exposure / relative proportion in blood (as compared to plasma) at peak concentration (Cmax): dosed orally; for Vd / bioavailability / clearance / blood plasma ratio: male, Sprague-Dawley; for Vd / bioavailability: in vivo; for Vd / clearance: oral 10 mg/kg or intravenous 1 mg/kg; for Vd: read-out: Vss; for bioavailability: oral 10 mg/kg, intravenous 1 mg/kg; for clearance: plasma; for blood plasma ratio: whole blood and plasma, oral, 10 mg/kg
Protocol: This experiment was established and used in order to assess the pharmacokinetic (PK) properties of the compounds.
Sample collection and data analysis: Rats (Sprague-Dawley, male, 8-12[…] weeks old) were dosed with one of three compounds corresponding to compound 12, compound 22 or compound 23. The rats received oral (10 mg/kg) or intravenous (1 mg/kg) doses of the compound. Rats were fasted overnight before the experiments and provided with food after the 2 hour sampling time point.
Blood samples were collected at different time points. Blood was anti-coagulated by 3.2% TSC (trisodium citrate) and a portion was separated into plasma fraction by centrifugation and removal of blood cells. Plasma and lysed blood samples were anal) zed for drug concentration using LC-MS/MS. PK parameters were calculated by non compartmental analysis of the concentration-time profiles using WinNonLin software (Pharsight, Mountain View, Calif.). Apparent elimination half-life (t1/2) values were calculated as ln(2)/k. Area under the concentration-time curve (AUC) values were estimated using the linear trapezoidal method. AUClast values were calculated from the dosing time to the last measurable concentration. AUCinf values were calculated as the sum of the corresponding AUClast and the ratio of the last detectable concentration divided by k. Plasma clearance (Cl) is calculated from Dose/AUCinf. Volume of distribution at steady state (Vss) is calculated from Mean Residence Timeinf×Clss. Maximum concentration (Cmax) and time to Cmax (Tmax) was recorded as observed. The blood/plasma partitioning ratio was calculated at each experimental time point.

HbS/A = target: T3, HbS/A (Homo sapiens, UniProt P68871+P69905, E7V); assay: R/T assay (relaxed-to-tense transition); format: biochemical; settings: HbS/A 3 μM
T3 construct: A mixture of HbS/A was purified from blood obtained from homozygous sickle cell patients; from tissue; host or cells: blood of homozygous sickle cell patients
Protocol: This ability can be expressed as a “delta R” value (i.e., the change in the time-period of the R state after hemoglobin is treated with a compound, as compared to the period without treatment with the compound). Delta R is the % R to remaining after the compounds treatment compared with no treatment (e.g., if R % without treatment is 8% while with treatment with a target compound is 48% R at 30 μM, then % R is 40% for that compound.
A mixture of HbS/A was purified from blood obtained from homozygous sickle cell patients though the Hemoglobinopathy Center at Children's Hospital Oakland Research Institute (CHORI) with Institutional Review Board approval. HbS/A (at a final concentration of 3 μM) was incubated for 1 hr at 37° C. in presence or absence of compounds in […] potassium phosphate buffer, pH=7.4 and 30 μM 2,3 diphosphoglycerate (DPG) in 96 well plates in a final volume of 160 μl. Compounds were added at different concentrations (3 μM to 100 μM final concentrations). Plates were covered with a Mylar film. After incubation was completed the Mylar cover was removed and the plates were placed in a Spectrostar Nano plate reader previously heated at 37° C. Five minutes later, N2 (flow rate=20 L/min) was flowed through the spectrophotometer. Spectroscopic measurements (300 nm to 700 nm) were taken every 5 min for 2 hours. Data analysis was performed by using linear regression from the data retrieved for all wavelengths.

purified HbS = target: T4, purified HbS (Homo sapiens, UniProt P68871+P69905, E7V); assay: HbS polymerization assay; format: biochemical; settings: 75 μM compound; 50 μM HbS
T4 construct: HbS is purified by the CRO VIRUSYS, from blood obtained from homozygous sickle cell patients; tissue VIRUSYS (CRO that did the purification); host or cells: blood of homozygous sickle cell patients
Protocol: Polymerization assays are carried out in vitro using purified HbS exchanged into 1.8 M potassium phosphate buffer at pH 7.4. Using a slightly modified protocol (Antonini and Brunori, 1971). HbS is purified by the CRO VIRUSYS, from blood obtained from homozygous sickle cell patients through the Hemoglobinopathy Center at Children's Hospital Oakland Research Institute (CHORI) with Institutional Review Board approval. Compounds are prepared in 100% DMSO and a desired amount is added to 50 μM of purified HbS at a final DMSO concentration of 0.3%. Final potassium phosphate concentration is adjusted to 1.8 M using a combination of 2.5 M potassium phosphate stock solution and water at pH 7.4. The reaction mixture is incubated for an hour at 37° C. and then transferred into a 24-well plate for deoxygenation in a glove box containing 99.5% nitrogen and 0.5% oxygen. The 24-well plate is not covered and incubated at 4° C. on a plate cooler inside the glove box for one and a half hours. Fifty μl of the reaction mixture is transferred into a 96-well plate and the absorbance at 700 nm is measured every minute for one hour at 37° C. in a plate reader located inside the glove box. A plot of the absorbance against time is fitted using a Boltzman sigmoidal fit and the delay time (from zero to time at half Vmax) is measured. To compare and rank compounds, delay times are expressed as percent delay (% DT), which is defined as the difference in delay times for HbS/compound and HbS alone multiplied by 100 and divided by the delay time for HbS alone.
The ability of 5-HMF and compound 12 to delay HbS polymerization was evaluated as described in Example 2, above. Purified HbS (50 μM) was pre-incubated with 25 μM, 50 μM, or 100 μM of 5-HMF or compound 12, then passively de-oxygenated at 4° C. in 1.8 M potassium phosphate. Polymerization was induced via temperature jump from 4° C. to 37° C. Polymerization was quantified based on turbidity of the HbS solution under continued hypoxia.

[6] = read-out: Blood/plasma (Ratio of exposure AUCINF)
[7] = read-out: Blood/plasma (Ratio of peak concentration)

Whole Blood OEC (delta p50%) ([1]; [cmp] 1 mM) [%]	Whole Blood OEC (delta p50%) ([1]; [cmp] 3 mM) [%]	p50 [1] [mm Hg]	Hb in ODA (Δoxy state) (HbS [2])	Hb in ODA (Δoxy state) (HbS [4])	level of compound in blood versus plasma, overall exposure [5] [fold]	relative proportion in blood (as compared to plasma) at peak concentration (Cmax) [5] [fold]	Vd [5] [L/kg]	bioavailability [5] [%]	clearance [5] [mL/min/kg]	blood plasma ratio [5, 6]	blood plasma ratio [5, 7]	Reverse Hemox delta p50% (class) [1]	Reverse Hemox delta p50% [1] [%]	R-T delta R (HbS/A; 9 μM compound)	R-T delta R (class) (HbS/A; 9 μM compound)	R-T delta R (HbS/A; 10 μM compound)	R-T delta R (class) (HbS/A; 10 μM compound)	Compound	potency at increasing the oxygen affinity of HbS compared with 5-HMF (HbS [2])	Viscosity (ΔcP) ([3]; [cmp] 8 mM) [cP]	other results
49	71	18	10	2	–	–	–	–	–	–	–	–	–	–	–	–	–	COc1cc(C=O)c(OCc2cccnc2-c2[nH]ncc2C)cn1 [Compound 5, 2-methoxy-5-[[2-(4-methyl-1H-pyrazol-5-yl)pyridin-3-yl]methoxy]pyridine-4-carbaldehyde]	more potent at increasing the oxygen affinity of HbS than 5-hydroxy furfural	>2.4	p50 (washed red blood cells; washed RBCs, 1 mM compound, control 30 mm Hg): 9 mm Hg
63	>80	11	23	6	–	–	–	–	–	–	–	–	–	–	–	–	–	COc1cc(C=O)c(OCc2cccnc2-c2ccnn2C(C)C)cn1 [Compound 9, 2-methoxy-5-[[2-(2-propan-2-ylpyrazol-3-yl)pyridin-3-yl]methoxy]pyridine-4-carbaldehyde]	more potent at increasing the oxygen affinity of HbS than 5-hydroxy furfural	>2.4	Washed RBC OEC (delta p50%) (washed red blood cells; [Hb] 1 mM, [cmp] 1 mM): 69%; Viscosity (ΔcP) ([3]; [cmp] 1.6 mM): 2.3 cP
–	–	–	–	–	5	5	3.1	6.6	9	33	5	+++ (a delta p50% of 50 or greater)	68.69	31.02	++ (a delta R of between 30 and 50)	36.25	++ (a delta R of between 30 and 50)	COc1cc(C=O)c(OCc2cccnc2-c2ccnn2CC(F)F)cn1 [Compound 22, 5-[[2-[2-(2,2-difluoroethyl)pyrazol-3-yl]pyridin-3-yl]methoxy]-2-methoxypyridine-4-carbaldehyde]	–	–	Polymerization % DT (class) (purified HbS): †† (activity >80% but ≦120%); Polymerization % DT (percent delay) (purified HbS): 90.22%
–	–	–	–	–	1	3	3.15	1.8	13.7	4	1	+++ (a delta p50% of 50 or greater)	72.45	37.15	++ (a delta R of between 30 and 50)	51.55	+++ (a delta R of 50 or greater)	COc1cc(C=O)c(OCc2cccnc2-c2ccccc2C)cn1 [Compound 23, 2-methoxy-5-[[2-(2-methylphenyl)pyridin-3-yl]methoxy] pyridine-4-carbaldehyde]	–	–	Polymerization % DT (class) (purified HbS): †† (activity >80% but ≦120%); Polymerization % DT (percent delay) (purified HbS): 98.19%
